Measured values taken from patent publication US6486203B1, “Treating inflammatory diseases of the head and neck with cyclooxygenase-2 inhibitors” (Cornell Research Foundation, Inc., priority 1998, dated 2002).

How the values were obtained:
Type in all cases: in vivo, human
periodontitis = assay: Treatment of a patient with periodontitis with resveratrol lozenges (Example V); settings: tobacco-smoking person with periodontitis; lozenges of 1 gram twice a day; four months later
Excerpt: A […] tobacco-smoking […] is referred to a periodontist for bleeding gums and is diagnosed with periodontitis.

sore throat = assay: Treatment of sore throat with resveratrol lozenges (Example IV); settings: person with sore throat; lozenges of 1 gram, four per day for two days
Excerpt: A person has symptoms of a sore throat.

viral pharyngitis = assay: Treatment of a patient with viral pharyngitis with lozenges (Example II); settings: person with viral pharyngitis; lozenges containing 100 mg four times a day
Protocol: A person has symptoms of a sore throat. They are evaluated by their physician who detects an erythematous pharynx. A diagnosis of viral pharyngitis is made.

sinusitis = assay: Treatment of a patient with sinusitis (Example III); settings: person with sinusitis; 200 mg orally twice a day, together with amoxicillin; after taking one dose
Protocol: A person presents to their physician complaining of fever and headache. On physical examination, they have tenderness over their maxillary sinus. A diagnosis of sinusitis is made. The patient is treated with amoxicillin 500 mg orally every eight hours for ten days. They are also given Celebrex 200 mg orally twice a day for seven days.

tonsillitis = assay: Treatment of a patient with tonsillitis (Example I); settings: person with tonsillitis; 200 mg orally twice a day, together with amoxicillin; after taking one dose
Protocol: A person has symptoms of a sore throat and fever. They are evaluated by a physician who notes inflamed tonsils and diagnoses tonsillitis. The patient is treated with amoxicillin 500 mg orally every eight hours for ten days. Additionally, they are given Celebrex (celecoxib) 200 mg orally twice a day for seven days.

| Compound | bleeding in gums (periodontitis) | periodontal disease on examination (periodontitis) | relief of throat discomfort (sore throat) | resolution of sore throat (viral pharyngitis) | improvement in sinus pain (sinusitis) | improvement in throat pain (tonsillitis) |
| --- | --- | --- | --- | --- | --- | --- |
| Oc1ccc(/C=C/c2cc(O)cc(O)c2)cc1 [resveratrol] | markedly decreased bleeding in their gums | improvement in periodontal disease is detected on examination | rapid relief of their throat discomfort | – | – | – |
| Cc1ccc(-c2cc(C(F)(F)F)nn2-c2ccc(S(N)(=O)=O)cc2)cc1 [Celebrex, 4-[5-(4-Methylphenyl)-3-(trifluoromethyl)-1H-pyrazol-1-yl]benzenesulfonamide] | – | – | – | complete resolution of their sore throat within two days | marked improvement in their sinus pain | marked improvement in their throat pain |
